These are literature values, as cited in US11197931B2, “Liquid injectable copolymer” (Queen's University at Kingston, priority 2017, dated 2021).

The structures appear in SMILES notation.

For the series the following is noted: 25° C.

Take `C[C@]12C=CC(=O)C=C1CC[C@H]1[C@@H]3C[C@@H](O)[C@](O)(C(=O)CO)[C@@]3(C)C[C@H](O)[C@@]12F` [triamcinolone]: the saturation concentration was 80 mg/L.
